Experimental data: PubChem BioAssay AID1963421 (Molecular Pharmacology Branch, DTP, NCI, 2024)
Blank lines part the entries; values can stand above or below the compound they belong to.

Test system: 519858-162-T-J1-PDC complex spheroid growth, % test/control
Assay: Anticancer human tumor 519858-162-T-J1-PDC patient-derived colon adenocarcinoma cell line growth inhibition [Asc]
Details: for IC50: curve of first compound; for viability, T/C: stronger effect = lower value
Procedure, shortened: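 Complex solid-tumor spheroids incorporating human endothelial and mesenchymal stem cells received single agents or combinations over half-log dilution ranges anchored to clinical Cmax.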

[1] = second compound 0.0316 µM, first compound 0.0316 µM
[2] = second compound 0.0316 µM, first compound 0.1 µM
[3] = second compound 0.0316 µM, first compound 0.316 µM
[4] = second compound 0.0316 µM, first compound 1 µM
[5] = second compound 0.1 µM, first compound 0.0316 µM
[6] = second compound 0.1 µM, first compound 0.1 µM
[7] = second compound 0.1 µM, first compound 0.316 µM
[8] = second compound 0.1 µM, first compound 1 µM
[9] = second compound 0.316 µM, first compound 0.0316 µM
[10] = second compound 0.316 µM, first compound 0.1 µM
[11] = second compound 0.316 µM, first compound 0.316 µM
[12] = second compound 0.316 µM, first compound 1 µM
[13] = second compound 1 µM, first compound 0.0316 µM
[14] = second compound 1 µM, first compound 0.1 µM
[15] = second compound 1 µM, first compound 0.316 µM
[16] = second compound 1 µM, first compound 1 µM
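Further: seven day drug exposure begun three days after spheroid seeding.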
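Wherever viability, T/C is given: 100% = DMSO vehicle wells and lower values mean less viable spheroid.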

- IC50 (second compound 0.00949 µM): > 1 µM
- IC50 (second compound 0.03 µM): > 1 µM
- IC50 (second compound 0.0949 µM): > 1 µM
- IC50 (second compound 0.3 µM): 0.749 µM
- IC50 (second compound 0.949 µM): 0.301 µM
- IC50 (second compound 3 µM): > 1 µM
SMILES: COc1c(OCCCN2CCOCC2)ccc2c3n(c(=NC(=O)c4cnc(N)nc4)nc12)CCN3 + CCN1C(C(=O)NC23CCC(C(=O)O)(CC2)CC3)C(c2cccc(Cl)c2F)C2(C(=O)Nc3cc(Cl)ccc32)C12CCCCC2
- viability, T/C (second compound 0.00949 µM, first compound 0.00316 µM): 75.5%
- viability, T/C (second compound 0.00949 µM, first compound 0.01 µM): 130%
- viability, T/C (second compound 0.00949 µM, first compound 0.0316 µM): 88.6%
- viability, T/C (second compound 0.00949 µM, first compound 0.1 µM): 80.3%
- viability, T/C (second compound 0.00949 µM, first compound 0.316 µM): 70.8%
- viability, T/C (second compound 0.00949 µM, first compound 1 µM): 53%
- viability, T/C (second compound 0.03 µM, first compound 0.00316 µM): 95.3%
- viability, T/C (second compound 0.03 µM, first compound 0.01 µM): 93.1%
- viability, T/C (second compound 0.03 µM, first compound 0.0316 µM): 89.3%
- viability, T/C (second compound 0.03 µM, first compound 0.1 µM): 80.3%
- viability, T/C (second compound 0.03 µM, first compound 0.316 µM): 81.6%
- viability, T/C (second compound 0.03 µM, first compound 1 µM): 57.3%
- viability, T/C (second compound 0.0949 µM, first compound 0.00316 µM): 86.8%
- viability, T/C (second compound 0.0949 µM, first compound 0.01 µM): 80.3%
- viability, T/C (second compound 0.0949 µM, first compound 0.0316 µM): 98.1%
- viability, T/C (second compound 0.0949 µM, first compound 0.1 µM): 77.2%
- viability, T/C (second compound 0.0949 µM, first compound 0.316 µM): 64.2%
- viability, T/C (second compound 0.0949 µM, first compound 1 µM): 55.9%
- viability, T/C (second compound 0.3 µM, first compound 0.00316 µM): 89.8%
- viability, T/C (second compound 0.3 µM, first compound 0.01 µM): 73.2%
- viability, T/C (second compound 0.3 µM, first compound 0.0316 µM): 80.2%
- viability, T/C (second compound 0.3 µM, first compound 0.1 µM): 84.3%
- viability, T/C (second compound 0.3 µM, first compound 0.316 µM): 56.2%
- viability, T/C (second compound 0.3 µM, first compound 1 µM): 47.9%
- viability, T/C (second compound 0.949 µM, first compound 0.00316 µM): 69.6%
- viability, T/C (second compound 0.949 µM, first compound 0.01 µM): 91.1%
- viability, T/C (second compound 0.949 µM, first compound 0.0316 µM): 91%
- viability, T/C (second compound 0.949 µM, first compound 0.1 µM): 47.5%
- viability, T/C (second compound 0.949 µM, first compound 0.316 µM): 60.8%
- viability, T/C (second compound 0.949 µM, first compound 1 µM): 32.1%
- viability, T/C (second compound 3 µM, first compound 0.00316 µM): 78.4%
- viability, T/C (second compound 3 µM, first compound 0.01 µM): 86%
- viability, T/C (second compound 3 µM, first compound 0.0316 µM): 80.6%
- viability, T/C (second compound 3 µM, first compound 0.1 µM): 57.6%
- viability, T/C (second compound 3 µM, first compound 0.316 µM): 60.2%
- viability, T/C (second compound 3 µM, first compound 1 µM): 50.4%

- IC50 (second compound 0.00316 µM): > 10 µM
- IC50 (second compound 0.01 µM): > 10 µM
- IC50 (second compound 0.0316 µM): > 10 µM
- IC50 (second compound 0.1 µM): > 10 µM
- IC50 (second compound 0.316 µM): > 10 µM
- IC50 (second compound 1 µM): > 10 µM
SMILES: C=C(F)C(=O)N1CCN(c2nc(OCC3CCCN3C)nc3c2CCN(c2cccc4cccc(Cl)c24)C3)CC1CC#N (stereo unspecified) + CNC(C)C(=O)NC1CN(S(=O)(=O)c2cccc(S(=O)(=O)N3CCC4CCC(C(=O)NC(c5ccccc5)c5ccccc5)N4C(=O)C(NC(=O)C(C)NC)C3)c2)CCC2CCC(C(=O)NC(c3ccccc3)c3ccccc3)N2C1=O
- viability, T/C (second compound 0.00316 µM, first compound 0.0316 µM): 102%
- viability, T/C (second compound 0.00316 µM, first compound 0.1 µM): 86.8%
- viability, T/C (second compound 0.00316 µM, first compound 0.316 µM): 102%
- viability, T/C (second compound 0.00316 µM, first compound 1 µM): 92.7%
- viability, T/C (second compound 0.00316 µM, first compound 3.16 µM): 94.8%
- viability, T/C (second compound 0.00316 µM, first compound 10 µM): 113%
- viability, T/C (second compound 0.01 µM, first compound 0.0316 µM): 104%
- viability, T/C (second compound 0.01 µM, first compound 0.1 µM): 83.7%
- viability, T/C (second compound 0.01 µM, first compound 0.316 µM): 91.2%
- viability, T/C (second compound 0.01 µM, first compound 1 µM): 82%
- viability, T/C (second compound 0.01 µM, first compound 3.16 µM): 96.7%
- viability, T/C (second compound 0.01 µM, first compound 10 µM): 108%
- viability, T/C [1]: 94.7%
- viability, T/C [2]: 83.7%
- viability, T/C [3]: 86.3%
- viability, T/C [4]: 93.4%
- viability, T/C (second compound 0.0316 µM, first compound 3.16 µM): 95.7%
- viability, T/C (second compound 0.0316 µM, first compound 10 µM): 107%
- viability, T/C [5]: 93.1%
- viability, T/C [6]: 91.2%
- viability, T/C [7]: 93.3%
- viability, T/C [8]: 89.2%
- viability, T/C (second compound 0.1 µM, first compound 3.16 µM): 86.8%
- viability, T/C (second compound 0.1 µM, first compound 10 µM): 116%
- viability, T/C [9]: 88.2%
- viability, T/C [10]: 96.9%
- viability, T/C [11]: 106%
- viability, T/C [12]: 92.9%
- viability, T/C (second compound 0.316 µM, first compound 3.16 µM): 82.2%
- viability, T/C (second compound 0.316 µM, first compound 10 µM): 107%
- viability, T/C [13]: 93.6%
- viability, T/C [14]: 101%
- viability, T/C [15]: 103%
- viability, T/C [16]: 92.6%
- viability, T/C (second compound 1 µM, first compound 3.16 µM): 91.2%
- viability, T/C (second compound 1 µM, first compound 10 µM): 112%

- IC50 (second compound 0.0316 µM): > 1 µM
- IC50 (second compound 0.1 µM): > 1 µM
- IC50 (second compound 0.316 µM): > 1 µM
- IC50 (second compound 1 µM): > 1 µM
- IC50 (second compound 3.16 µM): > 1 µM
- IC50 (second compound 10 µM): 0.506 µM
SMILES: CNC(C)C(=O)NC1CN(S(=O)(=O)c2cccc(S(=O)(=O)N3CCC4CCC(C(=O)NC(c5ccccc5)c5ccccc5)N4C(=O)C(NC(=O)C(C)NC)C3)c2)CCC2CCC(C(=O)NC(c3ccccc3)c3ccccc3)N2C1=O (stereo unspecified) + Cc1c(S(C)(=O)=O)c(-c2cc(F)cc(N3CCN(c4ccc(NS(=O)(=O)c5ccc(NC(CCN6CCC(C(=O)OCCCP(=O)(O)O)CC6)CSc6ccccc6)c(S(=O)(=O)C(F)(F)F)c5)cc4)CC3)c2)c(-c2ccc(Cl)cc2)n1C(C)C
- viability, T/C (second compound 0.0316 µM, first compound 0.00316 µM): 92.5%
- viability, T/C (second compound 0.0316 µM, first compound 0.01 µM): 110%
- viability, T/C [1]: 45%
- viability, T/C [2]: 110%
- viability, T/C [3]: 81.5%
- viability, T/C [4]: 81.5%
- viability, T/C (second compound 0.1 µM, first compound 0.00316 µM): 113%
- viability, T/C (second compound 0.1 µM, first compound 0.01 µM): 117%
- viability, T/C [5]: 124%
- viability, T/C [6]: 90%
- viability, T/C [7]: 76.7%
- viability, T/C [8]: 97.5%
- viability, T/C (second compound 0.316 µM, first compound 0.00316 µM): 104%
- viability, T/C (second compound 0.316 µM, first compound 0.01 µM): 107%
- viability, T/C [9]: 86.8%
- viability, T/C [10]: 78.5%
- viability, T/C [11]: 72.3%
- viability, T/C [12]: 87.1%
- viability, T/C (second compound 1 µM, first compound 0.00316 µM): 102%
- viability, T/C (second compound 1 µM, first compound 0.01 µM): 100%
- viability, T/C [13]: 83.6%
- viability, T/C [14]: 93%
- viability, T/C [15]: 96.5%
- viability, T/C [16]: 68.9%
- viability, T/C (second compound 3.16 µM, first compound 0.00316 µM): 86.9%
- viability, T/C (second compound 3.16 µM, first compound 0.01 µM): 93%
- viability, T/C (second compound 3.16 µM, first compound 0.0316 µM): 95.7%
- viability, T/C (second compound 3.16 µM, first compound 0.1 µM): 82.5%
- viability, T/C (second compound 3.16 µM, first compound 0.316 µM): 66.8%
- viability, T/C (second compound 3.16 µM, first compound 1 µM): 75%
- viability, T/C (second compound 10 µM, first compound 0.00316 µM): 60.5%
- viability, T/C (second compound 10 µM, first compound 0.01 µM): 63.2%
- viability, T/C (second compound 10 µM, first compound 0.0316 µM): 70.2%
- viability, T/C (second compound 10 µM, first compound 0.1 µM): 49%
- viability, T/C (second compound 10 µM, first compound 0.316 µM): 63.1%
- viability, T/C (second compound 10 µM, first compound 1 µM): 33.9%
